Source: patent US20180072997A1, “INHIBITORS OF HUMAN IMMUNODEFICIENCY VIRUS REPLICATION” (ViiV HEATHCARE UK (NO.5) LIMITED, priority 2015, published 2018)

How the values were obtained:
[1] = system: recombinant NL4-3 virus (Renilla luciferase in nef) in MT-2 cells; assay: whole plant or invertebrate; assay type: cell-based, HIV; conditions: luciferase activity
Procedure: HIV cell culture assay—MT-2 cells, 293T cells and the proviral DNA clone of NL4-3 virus were obtained from the NIH AIDS Research and Reference Reagent Program. MT-2 cells were propagated in RPMI 1640 media supplemented with 10% heat inactivated fetal bovine serum (FBS), 100 μg/ml penicillin G and up to 100 units/mL streptomycin. The 293T cells were propagated in DMEM media supplemented with 10% heat inactivated FBS, 100 μg/mL penicillin G and 100 μg/mL streptomycin. A recombinant NL4-3 proviral clone, in which a section of the nef gene was replaced with the Renilla luciferase gene, was used to make the reference virus used in these studies. The recombinant virus was prepared through transfection of the recombinant NL4-3 proviral clone into 293T cells using Transit-293 Transfection Reagent from Mirus Bio LLC (Madison, Wis.). Supernatent was harvested after 2-3 days and the amount of virus present was titered in MT-2 cells using luciferase enzyme activity as a marker by measuring luciferase enzyme activity. Luciferase was quantitated using the EnduRen Live Cell Substrate from Promega (Madison, Wis.). Antiviral activities of compounds toward the recombinant virus were quantified by measuring luciferase activity in MT-2 cells infected for 4-5 days with the recombinant virus in the presence of serial dilutions of the compound.
(Johnson V A, Byington R T. Infectivity Assay. In Techniques in HIV Research. ed. Aldovini A, Walker BD. 71-76. New York: Stockton Press.1990).

[2] = Compound cytotoxicity, XTT-based colorimetric assay; assay type: cell-based; conditions: human, uninfected MT2 cells, day 4, XTT
Procedure: Compound cytotoxicity and the corresponding CC50 values were determined using the same protocol as described in the antiviral assay except that uninfected cells were used. Cytotoxicity was assessed on day 4 in uninfected MT2 cells by using a XTT (2,3-bis[2-Methoxy-4-nitro-5-sulfophenyl]-2H-tetrazolium-5-carboxyanilide inner salt)-based colorimetric assay (Sigma-Aldrich, St Louis, Mo.).

[3] = Renilla, NL43, MT-2 cells infected for 4-5 days with recombinant NL4-3 Renilla luciferase virus

## COc1ccc(N(C)C(=O)[C@H](Cc2ccccc2)NC(=O)Cn2c(=O)n(CC(=O)N[C@@H](Cc3ccccc3)C(=O)N(C)c3ccc(OC)cc3)c3cc(NC(C)=O)ccc32)cc1 [Example 97]
[1]; [3]
  EC50: 2.6 µM
[2]
  CC50 at 4 days: ≥ 100 µM

## COc1ccc(N(C)C(=O)[C@H](Cc2ccccc2)NC(=O)NS(=O)(=O)N[C@@H](Cc2ccccc2)c2nnc(SC)o2)cc1 [Example 6]
[1]; [3]
  EC50: 6.78 µM
[2]
  CC50 at 4 days: ≥ 100 µM

## COc1ccc(N(C)C(=O)[C@H](Cc2ccccc2)NC(=O)c2cc(C(=O)N[C@@H](Cc3ccccc3)C(=O)N(C)c3ccc(OC)cc3)on2)cc1 [Example 116]
[1]; [3]
  EC50: 0.71 µM
[2]
  CC50 at 4 days: 1.5 µM

## COc1ccc(N(C)C(=O)[C@H](Cc2ccccc2)NC(=O)NS(=O)(=O)N[C@@H](Cc2ccccc2)c2nc(C)no2)cc1 [Example 7]
[1]; [3]
  EC50: 3.76 µM
[2]
  CC50 at 4 days: ≥ 100 µM

## COc1ccc(N(C)C(=O)[C@H](Cc2ccccc2)NC(=O)/C=C/CC(=O)N[C@@H](Cc2ccccc2)C(=O)N(C)c2ccc(OC)cc2)cc1 [Example 117]
[1]; [3]
  EC50: 0.64 µM
[2]
  CC50 at 4 days: 30.8 µM

## COc1ccc(N(C)C(=O)[C@H](Cc2ccccc2)NC(=O)[C@@H]2CC[C@H](C(=O)N[C@@H](Cc3ccccc3)C(=O)N(C)c3ccc(OC)cc3)C2)cc1 [Example 52]
[1]; [3]
  EC50: 1.14 µM
[2]
  CC50 at 4 days: 22.6 µM

## C=CCN(C(=O)[C@H](Cc1cc(F)cc(F)c1)NC(=O)c1ccccc1C(=O)N[C@@H](Cc1cc(F)cc(F)c1)C(=O)N(CC=C)c1ccc(OC)cc1)c1ccc(OC)cc1 [Example 191]
[1]; [3]
  EC50: 1.79 µM
[2]
  CC50 at 4 days: ≥ 100 µM

## COc1ccc(N(C)C(=O)[C@H](Cc2ccccc2)Nc2nc(N)nc(N[C@@H](Cc3ccccc3)C(=O)N(C)c3ccc(OC)cc3)n2)cc1 [Example 124]
[1]; [3]
  EC50: 3.8 µM
[2]
  CC50 at 4 days: 31 µM

## COc1ccc(N(C)C(=O)[C@H](Cc2ccccc2)NC(=O)C[C@H](O)C(=O)N[C@@H](Cc2ccccc2)C(=O)N(C)c2ccc(OC)cc2)cc1 [Example 32]
[1]; [3]
  EC50: 3.29 µM
[2]
  CC50 at 4 days: 34.6 µM

## COc1ccc(N(C)C(=O)[C@H](Cc2ccccc2)NC(=O)c2cc(C)cc(C(=O)N[C@@H](Cc3ccccc3)C(=O)N(C)c3ccc(OC)cc3)c2)cc1 [Example 102]
[1]; [3]
  EC50: 0.05 µM
[2]
  CC50 at 4 days: ≥ 33.3 µM

## CCc1ccc(N(C)C(=O)[C@H](Cc2cc(F)cc(F)c2)NC(=O)NS(=O)(=O)N[C@@H](Cc2cc(F)cc(F)c2)C(=O)N(C)c2ccc(CC)nc2)cn1 [Example 180]
[1]; [3]
  EC50: 0.03 µM
[2]
  CC50 at 4 days: 80.1 µM

## COc1ccc(N(C)C(=O)[C@H](Cc2ccccc2)NC(=O)Cn2c(=O)c(=O)n(CC(=O)N[C@@H](Cc3ccccc3)C(=O)N(C)c3ccc(OC)cc3)c3ccccc32)cc1 [Example 94]
[1]; [3]
  EC50: 0.16 µM
[2]
  CC50 at 4 days: 23.2 µM

## C=CCN(C(=O)[C@H](Cc1cc(F)cc(F)c1)NC(=O)NS(=O)(=O)N[C@@H](Cc1cc(F)cc(F)c1)C(=O)N(CC=C)c1ccc(OC)cc1)c1ccc(OC)cc1 [Example 120]
[1]; [3]
  EC50: 0.26 µM
[2]
  CC50 at 4 days: 23.3 µM

## COc1ccc(N(C)C(=O)[C@H](Cc2ccccc2)NC(=O)c2ccc(C(=O)N[C@@H](Cc3ccccc3)C(=O)N(C)c3ccc(OC)cc3)cc2)cc1 [Example 25]
[1]; [3]
  EC50: 1.13 µM
[2]
  CC50 at 4 days: 3.7 µM

## C=CCCN(C(=O)[C@H](Cc1cc(F)cc(F)c1)NC(=O)NS(=O)(=O)N[C@@H](Cc1cc(F)cc(F)c1)C(=O)N(CCC=C)c1ccc2scnc2c1)c1ccc2scnc2c1 (single isomer, unassigned) [Example 141]
[1]; MT-2 cells infected for 4-5 days with recombinant NL4-3 Renilla luciferase virus
  EC50: 0.09 µM
[2]
  CC50 at 4 days: 16.2 µM

## COc1ccc(N(C)C(=O)[C@H](Cc2cc(F)cc(F)c2)NC(=O)c2cccc(C(=O)N[C@@H](Cc3cc(F)cc(F)c3)C(=O)N(C)c3ccc(OC)cc3)c2)cc1 [Example 49]
[1]; [3]
  EC50: 0.04 µM
[2]
  CC50 at 4 days: 10.8 µM

## COc1ccc(N(C)C(=O)[C@H](Cc2ccccc2)NC(=O)/C=C\C(=O)N[C@@H](Cc2ccccc2)C(=O)N(C)c2ccc(OC)cc2)cc1 [Example 80]
[1]; [3]
  EC50: 0.16 µM
[2]
  CC50 at 4 days: 12.8 µM

## CN(C(=O)[C@H](Cc1cc(F)cc(F)c1)NC(=O)CN1c2ccccc2N(CC(=O)N[C@@H](Cc2cc(F)cc(F)c2)C(=O)N(C)c2ccc3c(c2)ncn3C)S1(=O)=O)c1ccc2c(c1)ncn2C [Example 209]
[1]; [3]
  EC50: 0.42 µM
[2]
  CC50 at 4 days: ≥ 100 µM

## C=CCCN(C(=O)[C@H](Cc1ccccc1)NC(=O)NS(=O)(=O)N[C@@H](Cc1ccccc1)C(=O)N(CC=C)c1ccc(OC)nc1)c1ccc(OC)nc1 [Example 223]
[1]; [3]
  EC50: 1.5 µM
[2]
  CC50 at 4 days: ≥ 25 µM

## Cc1nc2cc(N(C)C(=O)[C@H](Cc3cc(F)cc(F)c3)NC(=O)NS(=O)(=O)N[C@@H](Cc3cc(F)cc(F)c3)C(=O)N(C)c3ccc4sc(C)nc4c3)ccc2s1 [Example 151]
[1]; [3]
  EC50: 0.19 µM
[2]
  CC50 at 4 days: 33.4 µM

## COc1ccc(N(C)C(=O)[C@H](Cc2ccccc2)NC(=O)CS(=O)(=O)N[C@@H](Cc2ccccc2)C(=O)N(C)c2ccc(OC)cc2)cc1 [Example 63]
[1]; [3]
  EC50: 1.09 µM
[2]
  CC50 at 4 days: 30.2 µM

## COc1ccc(N(C)C(=O)[C@H](Cc2cc(F)cc(F)c2)NC(=O)Cn2c(=O)c3ccccc3c(=O)n2CC(=O)N[C@@H](Cc2cc(F)cc(F)c2)C(=O)N(C)c2ccc(OC)cc2)cc1 [Example 93]
[1]; [3]
  EC50: 0.09 µM
[2]
  CC50 at 4 days: 5.7 µM

## COc1ccc(N(C)C(=O)[C@H](Cc2ccccc2)NC(=O)c2cccc(S(=O)(=O)N[C@@H](Cc3ccccc3)C(=O)N(C)c3ccc(OC)cc3)c2)cc1 [Example 108]
[1]; [3]
  EC50: 0.72 µM
[2]
  CC50 at 4 days: ≥ 100 µM

## Cc1cc(N(C)C(=O)[C@H](Cc2ccccc2)NC(=O)NS(=O)(=O)N[C@@H](Cc2ccccc2)C(=O)N(C)c2ccc(C#N)c(C)c2)ccc1C#N [Example 228]
[1]; [3]
  EC50: 2.74 µM
[2]
  CC50 at 4 days: 93.5 µM

## CN(C(=O)[C@H](Cc1cc(F)cc(F)c1)NC(=O)NS(=O)(=O)N[C@@H](Cc1cc(F)cc(F)c1)C(=O)N(C)c1ccc2nccnc2c1)c1ccc2nccnc2c1 [Example 203]
[1]; [3]
  EC50: 30.4 µM
[2]
  CC50 at 4 days: ≥ 100 µM

## CN(C(=O)[C@H](Cc1cc(F)cc(F)c1)NC(=O)N[C@@H](Cc1cc(F)cc(F)c1)C(=O)N(C)c1ccc2scnc2c1)c1ccc2scnc2c1 [Example 221]
[1]; [3]
  EC50: 0.52 µM
[2]
  CC50 at 4 days: ≥ 100 µM

## C=CCN(C(=O)[C@H](Cc1cc(F)cc(F)c1)NS(=O)(=O)c1ccccc1S(=O)(=O)N[C@@H](Cc1cc(F)cc(F)c1)C(=O)N(CC=C)c1ccc(OC)cc1)c1ccc(OC)cc1 [Example 193]
[1]; [3]
  EC50: 1.74 µM
[2]
  CC50 at 4 days: ≥ 33.3 µM

## CN(C(=O)[C@H](Cc1cc(F)cc(F)c1)NC(=O)c1cccc(C(=O)N[C@@H](Cc2cc(F)cc(F)c2)C(=O)N(C)c2ccc3scnc3c2)c1)c1ccc2scnc2c1 [Example 51]
[1]; [3]
  EC50: 0.01 µM
[2]
  CC50 at 4 days: ≥ 100 µM

## COc1ccc(N(C)C(=O)[C@H](Cc2ccccc2)NC(=O)CCN2CCN(CCC(=O)N[C@@H](Cc3ccccc3)C(=O)N(C)c3ccc(OC)cc3)CC2)cc1 [Example 40]
[1]; [3]
  EC50: 0.31 µM
[2]
  CC50 at 4 days: 36 µM

## CN(C(=O)[C@H](Cc1ccccc1)NC(=O)c1ccc(F)c(C(=O)N[C@@H](Cc2ccccc2)C(=O)N(C)c2ccc3scnc3c2)c1)c1ccc2scnc2c1 [Example 169]
[1]; [3]
  EC50: 0.06 µM
[2]
  CC50 at 4 days: 4.5 µM

## CN(C(=O)[C@H](Cc1ccccc1)NC(=O)NS(=O)(=O)N[C@@H](Cc1ccccc1)C(=O)N(C)c1ccc2scnc2c1)c1ccc2scnc2c1 [Example 13]
[1]; [3]
  EC50: 0.08 µM
[2]
  CC50 at 4 days: ≥ 100 µM

## COc1ccc(N(C)C(=O)[C@H](Cc2ccccc2)NC(=O)CN2CCN(CC(=O)N[C@@H](Cc3ccccc3)C(=O)N(C)c3ccc(OC)cc3)C2=O)cc1 [Example 48]
[1]; [3]
  EC50: 0.17 µM
[2]
  CC50 at 4 days: 30.9 µM

## COc1ccc(N(C)C(=O)[C@H](Cc2ccccc2)NS(=O)(=O)NC(=O)N[C@@H](Cc2ccccc2)C(=O)N(C)c2ccc3scnc3c2)cc1 [Example 35]
[1]; [3]
  EC50: 0.03 µM
[2]
  CC50 at 4 days: 99.9 µM

## CN(C(=O)[C@H](Cc1cc(F)cc(F)c1)NC(=O)NS(=O)(=O)N[C@@H](Cc1cc(F)cc(F)c1)C(=O)N(C)c1ccc(C(C)(C)C)cc1)c1ccc(C(C)(C)C)cc1 [Example 168]
[1]; [3]
  EC50: 0.15 µM
[2]
  CC50 at 4 days: 16.2 µM
